One compound from patent US20260015325A1, “ALKOXY HETEROARYL- CARBOXAMIDE OR THIOAMIDE COMPOUNDS” (SYNGENTA CROP PROTECTION AG, priority 2022, published 2026) can be followed below.

In the assay the test system is Myzus persicae (Green Peach Aphid). Put plainly: Myzus persicae (Green Peach Aphid): feeding/contact activity, eggplant leaf discs. In kind it is in vivo. Particulars: foliar, 144 h, application rate of 200 ppm, mixed ages on sprayed eggplant leaf discs, 6 days after infestation, read-out: growth inhibition. Here is the method: Example B12: Myzus persicae (Green Peach Aphid) Feeding/Contact Activity Eggplant leaf discs were placed onto agar in a 24-well microtiter plate and sprayed with aqueous test solutions prepared from 10′000 ppm DMSO stock solutions. After drying, the leaf discs were infested with an aphid population of mixed ages. The samples were assessed for mortality 6 days after infestation.

For orientation: inhibition means the percentage by which the read-out fell short of the control. Consider `C[C@@H](COc1cc(C(=O)NC2(C#N)CC2)c(Cl)nn1)NS(=O)(=O)C(F)(F)F` [Compound P89, 3-chloro-N-(1-cyanocyclopropyl)-6-[(2S)-2-(trifluoromethylsulfonylamino)propoxy]pyridazine-4-carboxamide], for which the inhibition at 200 ppm is at least 80%.
